Assays:
[1] = stated in background; cited from earlier work
solubility in water = format: physicochemical
human H1 receptor = target: T1, human H1 receptor (Homo sapiens, UniProt P35367); assay: standard H1 binding assay ([3H]-pyrilamine displacement, scintillation counting); details: recombinant HEK-293 derived membranes, [3H]-pyrilamine 1 nM, 22°C, 60 minutes
T1 construct: expressed in transfected cells; host or cells: HEK-293 (membranes)
Method: The antiH1 activity of Compound II was assayed using a standard H1 binding assay. The test was performed following a protocol based on Smit et al. (Brit. J. Pharmacol. 1996 117(6), 1071-1080): the binding was performed on recombinant HEK-293 cells expressing the human H1 receptor. The reference compound was [^3H]-pyrilamine at 1 nM. Recombinant HEK-293 derived membranes were incubated at 22°C for 60 minutes with [^3H]-pyrilamine in the presence of different concentrations of compound II. Measurements were carried out using scintillation counting.

T1 sequence (P35367 whole entry): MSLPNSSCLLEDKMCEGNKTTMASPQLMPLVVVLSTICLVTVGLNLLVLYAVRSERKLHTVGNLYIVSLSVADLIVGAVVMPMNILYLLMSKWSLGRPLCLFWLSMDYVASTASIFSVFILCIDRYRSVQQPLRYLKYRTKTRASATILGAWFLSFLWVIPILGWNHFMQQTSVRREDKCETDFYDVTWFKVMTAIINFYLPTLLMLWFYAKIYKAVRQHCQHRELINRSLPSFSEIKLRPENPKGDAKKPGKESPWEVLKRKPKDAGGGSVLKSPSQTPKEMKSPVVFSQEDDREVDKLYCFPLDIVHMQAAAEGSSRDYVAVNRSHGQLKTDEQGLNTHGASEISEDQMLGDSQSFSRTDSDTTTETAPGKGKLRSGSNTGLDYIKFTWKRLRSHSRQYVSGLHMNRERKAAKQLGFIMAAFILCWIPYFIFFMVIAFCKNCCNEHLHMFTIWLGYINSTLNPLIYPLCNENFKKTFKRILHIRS

Compound: Rupatadine fumarate
- solubility in water [1]: 2.9 mg/mL

Compound: Cc1cc(CN2CCC(=C3c4ccc(Cl)cc4CCc4cccnc43)CC2)c[n+](C(CC(=O)O)C(=O)[O-])c1 (stereo not drawn) [Compound II]
- solubility (solubility in water): > 50 mg/mL
- IC50 (human H1 receptor): 370 nM
